The values that follow come from patent US5962534A, “Regulating gene expression using retinoids with CH2 OH or related groups at the side chain terminal position” (Cornell Research Foundation, Inc., priority 1997, dated 1999).

A short description of one data set: Water solubility. The class given is physicochemical. Particulars: no data shown.
The subject of another data set is deep (cystic) acne. Briefly: Treatment of patients with deep (cystic) acne. The class given is in vivo, human. The conditions noted are these: oral, 100 mg/square meter per day. An excerpt:
A very prolonged remission, and potentially permanent cure can be obtained.

In data set [1] the test system is cellular retinoic acid binding protein I (CRABP I). Briefly: Inhibition of all-trans-3H-retinoic acid binding to CRABP I. The conditions noted are these: data not shown.
The test system of the next data set is RXRs α, β, or γ. Briefly: Inhibition of 3H-9-cis retinoic acid binding to RXRs. Set-up: species or system mouse. The conditions noted are these: data not shown. The source says: See Levin, A. A., et al (29).
Another data set has as its system breast cancer. Briefly: Treatment of patients with breast cancer. The class given is in vivo, human. Particulars: oral, 100 mg/square meter per day.
Data set [2] relates to F9 stem cells. Briefly: Intracellular concentration in differentiating F9 stem cells. Format: in vitro ADME, mouse. Particulars: calculated.
In data set [3] the test system is advanced head and neck cancer. Briefly: Treatment of patients with advanced head and neck cancer. Format: in vivo, human. Particulars: oral, 100 mg/square meter per day. The source says:
Current systemic chemotherapy regimens are unable to prolong survival of patients with advanced head and neck cancer.

Data set [4] concerns RARE-β-galactosidase (F9-RARE-β-galactosidase reporter cell line). Briefly: Transcription of RARE-β-galactosidase in F9-RARE-β-galactosidase reporter cell line. The conditions noted are these: Mus musculus; media lacking serum. Format: cell-based. The protocol:
Cells were treated with different concentrations of retinoids in media lacking serum, harvested and assayed for β-galactosidase activity. […] The β-galactosidase activity in this cell line reflects the activation of the RARs.

Data set [5] concerns aging or photodamaged skin. Briefly: Treatment of patients with aging or photodamaged skin. Particulars: oral 100 mg/square meter per day or topical 10 mg per square inch per day, 4 to 8 months. The class given is in vivo, human.
The test system of the next data set is Hoxa-1. Briefly: Hoxa-1 gene expression in F9 stem cells by Northern blot. The class given is cell-based. Particulars: Mus musculus, F9, 72 h, read-out: Hoxa-1 transcripts induction. An excerpt: (§1) Teratocarcinoma stem cells can be induced to differentiate in monolayer culture by retinoic acid over a 3-4 day period into nonmalignant endoderm cells resembling the extraembryonic endoderm of the mouse blastocyst as described in Gudas, L. J., et al (27). The F9 teratocarcinoma stem cell line is used as a model tumor cell differentiation system because F9 stem cells share similar biochemical, immunological and morphological characteristics with early mouse embryonic stem cells and additionally, large numbers of cells can be cultured and experimentally manipulated. The expression of several homeobox genes including Hoxa-1 is induced by RA in mouse teratocarcinoma cell lines as described in LaRosa, G. J., et al (34) and LaRosa, G. J., et al (35). […] See LaRosa, G. L, et al (34). Other genes such as laminin B1 are activated subsequent to the activation of Hox 1.6 by retinoic acid as described in Vasios, G. W., et al (36).

In another data set the target is T1, RAR-α (Mus musculus, UniProt P11416).
T1 construct: expressed in transfected cells; host or cells: COS-1
T1 sequence (P11416 1-462): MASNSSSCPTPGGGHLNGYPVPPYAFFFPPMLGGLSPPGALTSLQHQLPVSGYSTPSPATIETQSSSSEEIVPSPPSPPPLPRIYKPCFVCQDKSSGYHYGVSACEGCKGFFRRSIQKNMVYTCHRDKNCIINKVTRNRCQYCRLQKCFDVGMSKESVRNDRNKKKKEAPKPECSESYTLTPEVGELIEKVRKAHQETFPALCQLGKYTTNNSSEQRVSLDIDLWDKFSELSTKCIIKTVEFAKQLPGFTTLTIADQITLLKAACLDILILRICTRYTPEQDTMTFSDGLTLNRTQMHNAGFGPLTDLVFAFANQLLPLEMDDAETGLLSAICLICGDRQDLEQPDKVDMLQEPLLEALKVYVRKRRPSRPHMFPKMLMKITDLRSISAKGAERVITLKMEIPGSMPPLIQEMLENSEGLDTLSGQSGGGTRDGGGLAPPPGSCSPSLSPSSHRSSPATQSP
Briefly: Competitive binding of 3H-all-trans-retinoic acid to RAR-α. Particulars: concentration to inhibit 50% binding of 3H-all-trans-retinoic acid (10 nM); mean ± SD, at least 3 replicate experiments.

In the next data set the target is T2, RAR-γ (Mus musculus, UniProt P18911).
T2 sequence (P18911 1-458): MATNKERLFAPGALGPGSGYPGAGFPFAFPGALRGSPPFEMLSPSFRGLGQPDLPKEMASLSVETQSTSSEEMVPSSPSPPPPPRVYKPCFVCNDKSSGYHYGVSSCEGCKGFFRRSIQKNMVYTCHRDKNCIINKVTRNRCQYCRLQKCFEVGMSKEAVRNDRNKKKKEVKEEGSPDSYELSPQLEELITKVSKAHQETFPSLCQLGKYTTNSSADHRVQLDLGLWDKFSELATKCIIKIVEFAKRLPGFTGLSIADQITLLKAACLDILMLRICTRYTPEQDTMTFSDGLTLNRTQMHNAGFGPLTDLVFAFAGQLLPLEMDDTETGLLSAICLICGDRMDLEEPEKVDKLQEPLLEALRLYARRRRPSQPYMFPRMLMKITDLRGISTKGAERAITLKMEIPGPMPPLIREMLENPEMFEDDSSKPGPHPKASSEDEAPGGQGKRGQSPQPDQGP
Briefly: Competitive binding of 3H-all-trans-retinoic acid to RAR-γ.

The next data set concerns laminin B1. Briefly: Laminin B1 gene expression in F9 stem cells by Northern blot. Particulars: Mus musculus, F9, 72 h, read-out: Laminin B1 expression induction. Format: cell-based.
Text: as §1

The nature of data set [6]: Metabolism / half-life of retinoids in F9 cells. Format: in vitro ADME, mouse. The conditions noted are these: mouse; 50 nM; F9 stem or differentiating cells; FIG. 5. As for the experimental part: (§2) ^3 H-4-hydroxyretinol and ^3 H-4-oxo-retinol were purified from RA treated, differentiated F9 cells (ATCC CRL 1720) after the differentiated cells were incubated with ^3 H-retinol for 18 h. The identities of purified ^3 H-4-hydroxyretinol and ^3 H-4-oxo-retinol were verified by matching both the elution times on the HPLC and the spectra of known standards.
(§3) F9 stem cells or retinoic acid-treated cells (72 h) were cultured in the presence of 50 nM of either ^3 H-4-hydroxyretinol or ^3 H-4-oxo-retinol for different periods of time.
(§4) FIGS. 5A-5D depict HPLC analysis after incubation in the presence of 50 nM ^3 H-4-oxo-retinol for periods of time as indicated and extraction using the method described in McClean, S. W., et al (15). The results are the same in both stem and retinoic acid- treated cells.

The test system of data set [7] is F9 stem cells. Briefly: Metabolism / half-life of retinoids in F9 cells. The class given is in vitro ADME, mouse. The protocol:
as §2, §3, §4

A further data set deals with psoriatic arthritis. Briefly: Treatment of patients with psoriatic arthritis. The conditions noted are these: oral, 50 mg/square meter per day. The class given is in vivo, human.

Protocol for RAR-α: (§5) Retinoids were assayed for their ability to bind members of the family of the retinoic acid receptors, the RARs, as follows:
(§6) COS-1 cells were transfected by DEAE-dextran with pSG5 expression vectors containing cDNAs for mouse RARs α, β, or γ or RXRs α, β, or γ. […] Nucleosol or cytosol fractions were prepared as described in Nervi, C., et al (30) and Nervi, C., et al (31) and stored at -70° C. until use. Aliquots of nucleosol or cytosol were incubated in nuclei lysis buffer as described in Nervi, C., et al (30) with tritiated ligands for 4 h at 4° C. […] For competitive binding assays, the incubations were performed with increasing concentrations of unlabeled competing ligand and a fixed concentration of the radioligand (10 nM ^3 H-retinoic acid). In saturation kinetic studies, incubations were performed in the presence of increasing concentrations of the indicated radioligand. For all binding assays, bound was separated from free radioactivity as described in Levin, A. A., et al (29).
Protocol for RAR-γ: as §5, §6

For `CC1=C(/C=C/C(C)=C/C=C/C(C)=C/CO)C(C)(C)CCC1=O` [4-oxo-retinol, all-trans-4-oxo-retinol], in the data set “Water solubility”, the “water solubility compared with all-trans-retinoic acid” value was “more water soluble”. Besides, the “mean reduction in lesion counts” value in the data set on deep (cystic) acne (end of 3 to 6 months) is “greater than 85%”. Besides, the acne clearance result in the data set with deep (cystic) acne (after discontinuation) is recorded as “in some cases complete clearance occurs”. For the same compound, the “inhibition of binding of all-trans-3H-retinoic acid to CRABP I” value in data set [1] is recorded as “unable to inhibit”. In the data set on RXRs α, β, or γ, the “inhibition of 3H-9-cis retinoic acid binding to RXRs” value is given as “Neither the 4-hydroxyretinol nor the 4-oxo-retinol inhibited”. Moreover, in the data set on breast cancer, the “tumor burden, breast cancer” value is recorded as “reduced tumor burden”. For the same compound, the intracellular concentration result in the data set with F9 stem cells [2] is reported as “approximately 85 nM”. For the same compound, in data set [3], the “tumor burden, head and neck cancer” value is given as “reduced tumor burden”. The “survival beyond the median” value in data set [3] (and/or reduced tumor burden) was 4-6 months. Besides, the midpoint of the response in data set [4], the EC50, lay at 42 nM. Besides, the “wrinkles, smoothness, pigmented areas of skin” value in data set [5] is “fewer and reduced depth of wrinkles, increased smoothness of the skin, and a reduction in pigmented areas of the skin”. Besides, the fold induction at 1 µM in the data set with Hoxa-1 was 25; in the data set with laminin B1, 7. Further, the figures for the IC50 on RAR-α and at RAR-γ were 330 ± 54 nM and 3200 ± 520 nM, respectively. Also, at RAR-γ (relative to RAR-α and RAR-β, 240 min), the “inhibition of 3H-retinoic acid binding to RAR-γ, fold weaker than RAR-α and RAR-β” value is recorded as 10 fold. In [6], this compound returned a half-life at 0.05 µM above 15 h. For the same compound, the “half-life in F9 stem cells” value in the data set on F9 stem cells [7] (50 nM, order of magnitude in words) is recorded as “on the order of days”. Also, the “metabolites of 4-oxo-retinol detected” value in the data set on F9 stem cells [7] (50 nM, presumed 4-oxo-retinyl esters) was “small amounts of several very hydrophobic retinoids”. Further, the “stability in F9 stem vs differentiating cells” value in the data set with F9 stem cells [7] (comparison of F9 stem and differentiating cells) is “equally stable”. In addition, the “induction of enzyme degrading the retinoid” value with F9 stem cells [7] (summary statement, vs all-trans-retinoic acid) is “does not induce production of enzyme which degrades it to inactive form”. In addition, the “4-oxo-retinoic acid formed from 4-oxo-retinol” value in the data set on F9 stem cells [7] (up to 15 h, 50 nM) is “No 4-oxo-retinoic acid was detected”. In addition, the psoriatic arthritis symptoms entry with psoriatic arthritis is “fewer tender joints and a decreased duration of morning stiffness”.
